Experimental data: patent US10196601B2, “Cell culture medium and process for controlling α-amidation and/or C-terminal amino acid cleavage of polypeptides” (LEK PHARMACEUTICALS D.D., priority 2013, dated 2019)
Where two headings read alike, the source gives them in different places.

Tests used:
PAM enzyme [1] = assay: amount of C-terminal α-amidated Pro of the expressed antibody (in vivo PAM activity), SF system; assay type: cell-based, Chinese hamster
Procedure: (§1) Experiments (using different illustrative glycoproteins) were performed in shake flask (SF) systems, where […] SFs with a final volume of 125 ml were used. All experiments started by thawing of a research working cell bank (rWCB), such as CHO cell line DP-12 (CHO DP-12 clone #1934 [CHO DP-12, clone #1934 aIL8.92 NB 28605/14] (ATCC® CRL-12445™) producing recombinant human anti-IL-8 or CHO-SSF cells expressing a monoclonal antibody directed to tumour necrosis factor, TNF (see PCT/EP2011/074181 for further details) followed by several subcultivations under standard conditions according to manufacture instructions until enough cells for the inoculation were available For all experiments, a 14 days generic fed batch fermentation was used and a generic feeding regime comprising feeding of glucose, glutamine and amino acids was performed. All SFs were incubated in a shaker incubator (Kuhner, Switzerland) at the following conditions: temperature of 36.5° C., CO2=10% and shaking speed 200 rpm.
(§2) At the end of 14 days of BR and SF bioprocesses (i.e., on day 14), harvests were sampled to 50 ml centrifuge tubes. […] Purification was done either using AKTA chromatography system with 1 ml HiTrap column (GE Healthcare, cat. no. 11-0034-93) or TECAN Freedom EVO pipetting station with 200 μl RoboColumns (Atoll, cat. no. 01050408R).
(§3) To measure the amount of C-terminal α-amidated Pro and the amount of C-terminal Lys, Cation Exchange Chromatography (CEX) was performed according to the laboratory procedure. Main charged variants were designated as 0K, pseudo 1K (1+) and pseudo 2K (2+). The positive charge refers to the Lys or α-amidated Pro at the C-terminus of the heavy chain. Charged variants (Lys, α-amidated Pro) were differentiated by CP cleavage of C-terminal Lys followed by the same CEX analysis. Structures eluting before the main three variants were designated as AP (acidic peaks) and those eluting after them as BP (basic peaks).
(§4) The experiment was performed in 500 ml SF with a final volume of 125 ml. After 14 days of fed batch bioprocess, harvests were collected, centrifuged, sterile filtered through a PES membrane and immediately subjected to a single step affinity chromatography (AC) purification and a subsequent analysis of C-terminal α-amidation by […]. Design Expert version 7.1.3 (Stat-Ease, Inc., Minneapolis, USA) was used to build the response surface design and to perform the statistical analysis of the experimental results. A MinRes IV design was used to determine the influence of the tested trace elements on cell productivity, C-terminal α-amidation and C-terminal carboxypeptidation of the investigated monoclonal antibody. Analyzed design expert (Stat-Ease, Inc., Minneapolis, USA) responses included end of fed-batch titer, amount of C-terminal α-amidated Pro and amount of C-terminal Lys.
(§5) The experiment was performed in 500 ml SF with a final volume of 125 ml. After 14 days of fed batch bioprocess, harvests were collected, centrifuged, sterile filtered through a PES membrane and immediately subjected to a single step AC purification and a subsequent analysis of C-terminal α-amidation by […].
(§6) After performing the above described analytical steps, the measured values were inserted into the DOE program and analyzed. The α-value of statistical significance was set to 0.100, which means that factors with a P-value higher than 0.100 were excluded from the statistical mode since they were non-significant.

PAM enzyme [2] = assay: amount of C-terminal α-amidated Pro (in vivo PAM activity), BR system; assay type: cell-based, Chinese hamster; details: 5 L BR
Procedure: as §2, §3
(§7) All experiments were performed in 5 L BRs.

[3] = test system: CHO cells expressing a monoclonal antibody; assay: titer in 5 L bioreactor (BR) fed batch culture; assay type: cell-based, Chinese hamster; details: 5 L BR
Procedure: as §7

[4] = test system: CHO cells expressing a monoclonal antibody; assay: end of fed-batch titer in shake flask (SF) fed batch culture; assay type: cell-based, Chinese hamster
Procedure: as §1, §4
Effects that were above the Bonferroni limit were certainly significant and effects that were above the t-Value limit were possibly significant. Effects that were below the t-Value limit were not selected as they were not significant. After selecting significant effects, the ANOVA statistical program was employed to confirm that only statistically significant effects were included in the model.
as §5, §6

CHO cells [5] = assay: cell viability in SF culture (trypan blue exclusion); assay type: cell-based, Chinese hamster; details: experiment 2, SF; selenium 3 μM (data not shown)
Procedure: Experiments (using different illustrative glycoproteins) were performed in shake flask (SF) systems, where […] SFs with a final volume of 125 ml were used.
as §5

CP enzyme [6] = assay: amount of C-terminal Lys (in vivo CP activity), BR system; assay type: cell-based, Chinese hamster; details: 5 L BR
Procedure: as §2, §3, §7
To test the effect of zinc on the CP activity, three different zinc chloride concentrations were tested, namely 3.7 μM, 11 μM and 22 μM. […] In regard to productivity, a constant drop of productivity was measured with the decrease of the zinc concentration.

CP enzyme [7] = assay: amount of C-terminal Lys of the expressed antibody (in vivo CP activity), SF system; assay type: cell-based, Chinese hamster
Procedure: as §1, §2, §3, §4, §5, §6

CHO cells [8] = details: 5 L BR
Procedure: All results were finally confirmed in a bioreactor (BR) system, where 5 L glass bioreactors were used.
In both the SF and BR system, the cell growth and cell viability were measured with the Vi-Cell XR analyzer (Beckman Coulter) using the trypan blue exclusion method for cell viability determination and automated cell counting for determination of the cell concentration. The monoclonal antibody content was determined by affinity liquid chromatography (ALC). A calibration curve was made by diluting the generic reference. […] The results were expressed in gram (g) of protein per liter (L) of harvest.
The obtained SF results were finally also tested in a bioreactor (BR) environment. All experiments were performed in 5 L BRs.

In the case of `[Cl][Cu][Cl]` [copper, copper chloride], the “increase of amount of C-terminal α-amidated Pro” value (PAM enzyme [1]; experiment 1, SF, 10-fold increased copper (FIG. 4)) is reported as 2.5%, the “amount of C-terminal α-amidated Pro” value (PAM enzyme [1]; experiment 2, DOE model, copper 0.06 μM) is reported as 2.1% and the “amount of C-terminal α-amidated Pro” value (PAM enzyme [1]; experiment 2, DOE model, copper 0.18 μM) is reported as 2.2%.

In the case of `O=[Se]([O-])[O-].[Na+].[Na+]` [selenium, sodium selenite], the “C-terminal α-amidated Pro” value (PAM enzyme [2]; 0.17 μM selenium (FIG. 12)) is reported as 9.3%, the “C-terminal α-amidated Pro” value (PAM enzyme [2]; 2.31 μM selenium (FIG. 12)) is reported as 2.25% and the titer decrease ([3]; 2.31 μM versus 0.17 μM selenium (FIG. 11B)) is reported as 1 g/L. For the same compound, the titer ([4]; experiment 1, SF, selenium 0.017 μM) was 0.4 g/L, the effect on titer ([4]; experiment 2, SF, selenium above 3 μM (FIG. 7)) was “titer decrease” and the “amount of C-terminal α-amidated Pro” value (PAM enzyme [1]; experiment 1, SF, 10-fold increased selenium (FIG. 4)) was 4.5%. For the same compound, the “amount of C-terminal α-amidated Pro” value (PAM enzyme [1]; experiment 1, SF, before 10-fold increase of selenium (FIG. 4)) was 6.5%, the “amount of C-terminal α-amidated Pro” value (PAM enzyme [1]; experiment 2, selenium 0.17 μM (FIG. 8)) was 2.2% and the “amount of C-terminal α-amidated Pro” value (PAM enzyme [1]; experiment 2, selenium 3.00 μM (FIG. 8)) was 1.26%. For the same compound, the viability (CHO cells [5]) was “below 80%”.

With `[Cl-].[Cl-].[Zn+2]` [zinc, zinc chloride] the “C-terminal Lys” value (CP enzyme [6]; 3.7 μM zinc (FIG. 14)) was 6%, the “C-terminal Lys” value (CP enzyme [6]; 22 μM zinc (FIG. 14)) was 3.15% and the “amount of C-terminal Lys” value (CP enzyme [7]; confirmation, SF, three parallels, 2.3 μM zinc (FIG. 10B)) was 15.97%±0.79%. The “amount of C-terminal Lys” value (CP enzyme [7]; confirmation, SF, three parallels, unchanged in-house medium, 22 μM zinc (FIG. 10B)) was 1.99%±0.08%, the “amount of C-terminal Lys” value (CP enzyme [7]; experiment 1, SF, 10-fold increased zinc (FIG. 6)) was 8.5% and the “amount of C-terminal Lys” value (CP enzyme [7]; experiment 1, SF, before 10-fold increase of zinc (FIG. 6)) was 22%. For the same compound, the “amount of C-terminal Lys” value (CP enzyme [7]; experiment 2, DOE model, zinc 0.15 μM (FIG. 9)) was 15%, the “amount of C-terminal Lys” value (CP enzyme [7]; experiment 2, DOE model, zinc 5.00 μM (FIG. 9)) was 5% and the final titer ([3]; highest zinc concentration, 22 μM (FIG. 13B)) was 3.86 g/L. It also gave a final titer ([3]; lowest zinc concentration, 3.7 μM (FIG. 13B)) of 1.86 g/L, a final titer ([3]; zinc 11 μM (FIG. 13B)) of 2.90 g/L and a titer ([4]; experiment 1 (MinRes IV), SF, 14 days fed batch, zinc 2.201 μM) of 0.4 g/L. The titer ([4]; experiment 1, SF, zinc 22.012 μM) was 0.6 g/L, the titer ([4]; experiment 2 (central composite design), DOE model, zinc 7 μM (FIG. 7)) was 0.4 g/L and the titer ([4]; experiment 2, DOE model, zinc 12 μM (FIG. 7)) was “above 0.6 g/L”. For the same compound, the cell culture growth (CHO cells [8]; 3.7 μM zinc (FIG. 13A)) was “significantly lower growth” and the cell culture growth (CHO cells [8]; 11 μM compared with 22 μM zinc (FIG. 13A)) was “well comparable”.
